Reference: PubChem BioAssay (NCI)
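Grown in 96-well plates, cells were treated for 48 hours with each compound at five concentrations. Insufficient inhibition: endpoint recorded as highest concentration tested. GI50 is the concentration that inhibits growth by half. TGI is the concentration that stops growth completely.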

Experiments:
Experiment in all cases: growth of human tumour cells (NCI), 48 h
[1] = test system: NCI-H522 lung
[2] = test system: MALME-3M melanoma
[3] = test system: RPMI-8226 leukemia
[4] = test system: A498 renal
[5] = test system: SR leukemia
[6] = test system: IGROV1 ovarian
[7] = test system: NCI-H226 lung
[8] = test system: OVCAR-3 ovarian
[9] = test system: MDA-MB-435
[10] = test system: NCI-H460 lung
[11] = test system: DU-145 prostate
[12] = test system: LOX IMVI melanoma
[13] = test system: TK-10 renal
[14] = test system: SF-268 CNS
[15] = test system: K-562 leukemia
[16] = test system: UACC-62 melanoma
[17] = test system: SK-MEL-28 melanoma
[18] = test system: OVCAR-5 ovarian
[19] = test system: EKVX NSCLC
[20] = test system: 786-0 renal
[21] = test system: COLO 205 colon
[22] = test system: SN12C renal
[23] = test system: U251 CNS
[24] = test system: MCF7 breast
[25] = test system: NCI-H23 lung
[26] = test system: A549 NSCLC
[27] = test system: SNB-75 CNS
[28] = test system: M14 melanoma
[29] = test system: BT-549 breast
[30] = test system: PC-3 prostate
[31] = test system: HT29 colon
[32] = test system: SK-MEL-5 melanoma
[33] = test system: HS 578T breast
[34] = test system: SNB-19 CNS
[35] = test system: HCT-116 colon
[36] = test system: HCC-2998 colon
[37] = test system: SW-620 colon
[38] = test system: OVCAR-4 ovarian
[39] = test system: HCT-15 colon
[40] = test system: NCI/ADR-RES ovarian
[41] = test system: KM12 colon
[42] = test system: SF-539 CNS
[43] = test system: SF-295 CNS
[44] = test system: CCRF-CEM leukemia
[45] = test system: HOP-92 NSCLC
[46] = test system: HOP-62 NSCLC
[47] = test system: UO-31 renal
[48] = test system: SK-MEL-2 melanoma
[49] = test system: MDA-MB-231 breast
[50] = test system: RXF 393 renal
[51] = test system: SK-OV-3 ovarian
[52] = test system: MOLT-4 leukemia
[53] = test system: CAKI-1 renal
[54] = test system: HL-60(TB) leukemia
[55] = test system: ACHN renal
[56] = test system: T-47D breast
[57] = test system: OVCAR-8 ovarian
[58] = test system: UACC-257 melanoma

COc1cc2c3c(cc4c5c(ccc4c3c1OC)OCO5)N(CCN(C)C)C2=O
GI50 [1]: 101 nM
TGI [1]: 599 nM
GI50 [2]: 64.2 nM
TGI [2]: 258 nM
GI50 [3]: 43.7 nM
TGI [3]: 517 nM
GI50 [4]: 77.6 nM
TGI [4]: 299 nM
GI50 [5]: 22.5 nM
GI50 [6]: 47.2 nM
TGI [6]: 501 nM
GI50 [7]: 69.6 nM
TGI [7]: 344 nM
GI50 [8]: 199 nM
TGI [8]: 1140 nM
GI50 [9]: 170 nM
TGI [9]: 615 nM
GI50 [10]: 17.6 nM
TGI [10]: 147 nM
GI50 [11]: 35.4 nM
TGI [11]: 490 nM
TGI [12]: 49.6 nM
GI50 [13]: 170 nM
TGI [13]: 702 nM
GI50 [14]: 104 nM
TGI [14]: 1040 nM
GI50 [15]: 50 nM
GI50 [16]: 56.7 nM
TGI [16]: 229 nM
GI50 [17]: 182 nM
TGI [17]: 676 nM
GI50 [18]: 133 nM
TGI [18]: 907 nM
GI50 [19]: 104 nM
TGI [19]: 669 nM
GI50 [20]: 35 nM
TGI [20]: 654 nM
GI50 [21]: 116 nM
TGI [21]: 935 nM
GI50 [22]: 31.8 nM
TGI [22]: 378 nM
GI50 [23]: 38.9 nM
TGI [23]: 1430 nM
GI50 [24]: 32.2 nM
TGI [24]: 579 nM
GI50 [25]: 53.8 nM
TGI [25]: 339 nM
GI50 [26]: 13.3 nM
TGI [26]: 385 nM
GI50 [27]: 71.1 nM
TGI [27]: 583 nM
GI50 [28]: 46.6 nM
TGI [28]: 400 nM
GI50 [29]: 234 nM
TGI [29]: 1530 nM
GI50 [30]: 157 nM
TGI [30]: 4440 nM
GI50 [31]: 87.1 nM
TGI [31]: 1260 nM
GI50 [32]: 92.4 nM
TGI [32]: 225 nM
GI50 [33]: 190 nM
TGI [33]: 1280 nM
GI50 [34]: 38.9 nM
TGI [34]: 2610 nM
GI50 [35]: 42.9 nM
TGI [35]: 422 nM
GI50 [36]: 85.8 nM
TGI [36]: 295 nM
GI50 [37]: 36.3 nM
TGI [37]: 1330 nM
GI50 [38]: 309 nM
TGI [38]: 7840 nM
GI50 [39]: 34 nM
TGI [39]: 605 nM
GI50 [40]: 68.5 nM
TGI [40]: 675 nM
GI50 [41]: 196 nM
TGI [41]: 11700 nM
GI50 [42]: 110 nM
TGI [42]: 411 nM
GI50 [43]: 33.5 nM
TGI [43]: 229 nM
GI50 [44]: 28.1 nM
TGI [44]: 9640 nM
GI50 [45]: 60.9 nM
TGI [45]: 561 nM
GI50 [46]: 35.9 nM
TGI [46]: 1620 nM
GI50 [47]: 34.3 nM
TGI [47]: 201 nM
GI50 [48]: 313 nM
TGI [48]: 804 nM
GI50 [49]: 249 nM
TGI [49]: 1610 nM
GI50 [50]: 89.4 nM
TGI [50]: 264 nM
GI50 [51]: 74.6 nM
TGI [51]: 600 nM
GI50 [52]: 23.6 nM
TGI [52]: 1410 nM
GI50 [53]: 39.3 nM
TGI [53]: 261 nM
GI50 [54]: 22.6 nM
TGI [54]: 118 nM
GI50 [55]: 21.5 nM
TGI [55]: 81.2 nM
GI50 [56]: 64.9 nM
TGI [56]: 3050 nM
GI50 [57]: 59.6 nM
TGI [57]: 5980 nM
GI50 [58]: 166 nM
TGI [58]: 596 nM
